Data as given in patent US20140286892A1, “USE OF A COMPOUND COMPRISING AT LEAST ONE NUCLEOPHILIC FUNCTION FOR CAPTURING CARBONYL COMPOUNDS RESULTING FROM THE REACTION BETWEEN ONE OR MORE COMPOUNDS CONSTITUTING SEBUM AND OZONE” (L'OREAL, priority 2011, published 2014).

Experiment: Capture of nonanal applied to skin after treatment with the cosmetic composition
Assay type: in vivo
Conditions: composition with 10% by weight APTES, pH 9 (lactic acid), 4 mg per cm^2 on skin, left to dry, then nonanal applied
Procedure: A cosmetic composition containing 10% by weight of APTES sold under the name Dow Corning is prepared. The pH of the composition is brought to 9 by adding lactic acid. The cosmetic composition is then applied to the skin in a proportion of 4 mg per cm^2 over the whole of the body, and then left to dry. Nonanal, which is an aldehyde that can be formed following the action of ozone on sebum, is then applied to the skin. An aqueous cosmetic composition containing 1.4% by weight of active materials of a vinylformamide/vinylformamine copolymer sold under the name Lupamine 9030 by the company BASF is prepared. It is applied to the skin in a proportion of 4 mg per cm^2 over the whole of the body, and then left to dry. Nonanal, which is a compound structurally close to those which are formed following the action of ozone on sebum, is then applied to the skin.

## CCO[Si](CCCN)(OCC)OCC [APTES, γ-aminopropyltriethoxysilane]
  trapping of nonanal in the skin: trapped
